# PMC2917628 (FEBS letters, 2010)
# Where a name gives a salt, the structure may show the parent alone.
# B1: PDGF: PDGF BB (cat # 3201), Sigma-Aldrich (protein, UniProt P01127 82-190, looked up)
# Platelet-derived growth …: SLGSLTIAEPAMIAECKTRTEVFEISRRLIDRTNANFLVWPPCVEVQRCSGCCNNRNVQCRPTQVQLRPVQVRKIEIVRKKPIFKKATVTLEDHLACKCETVAAARPVT
# modifications: Platelet-derived growth factor subunit B homodimer
# Tests used:
# [1] = tested on: NIH 3T3 cells; conditions: ref [9]; cited from earlier work
# [2] = tested on: macropinocytic uptake and membrane ruffles; conditions: ref [21]; cited from earlier work
# [3] = tested on: LNCaP cells expressing Abi1 Y213F; assay: flow cytometric uptake of Alexa Fluor 647; type: cell-based; conditions: 25 μM Alexa Fluor 647 hydrazide, 2 hours
# [4] = tested on: macropinocytic uptake of pathogenic bacteria; conditions: ref [10],[11]; cited from earlier work
# [5] = tested on: Rac1 activation; conditions: ref [25]; cited from earlier work
molecule,measurement,setting,value
COC[C@H]1OC(=O)c2coc3c2[C@@]1(C)C1=C(C3=O)[C@@H]2CCC(=O)[C@@]2(C)C[C@H]1OC(C)=O [wortmannin],macropinocytic uptake of Alexa Fluor 594,[1],inhibit macropinocytic uptake
same,macropinocytic uptake and formation of membrane ruffles,[2],inhibits macropinocytic uptake and the formation of membrane ruffles but not in all cells
"C/C1=C/C(=O)O[C@@H]2C[C@@H](CC[C@H](C)/C=C\C=C\CC1)O[C@@](O)([C@@H]1CSC(=O)N1)C2 [Latrunculin A, latrunculin A]","macropinocytic uptake of Alexa Fluor 647 with latrunculin A, Abi1 Y213F cells","[3]; 0.2 μM latrunculin A, PDGF not added",significant decrease
O=c1cc(N2CCOCC2)oc2c(-c3ccccc3)cccc12 [LY294002],macropinocytic uptake of Alexa Fluor 594,[1],inhibit macropinocytic uptake
"Cc1ccc(NC(=O)c2ccc(CN3CCN(C)CC3)cc2)cc1Nc1nccc(-c2cccnc2)n1 [STI-571, Imatinib mesylate]",macropinocytic uptake of pathogenic bacteria,[4],inhibits macropinocytic uptake of pathogenic bacteria
B1,"PDGF response of Alexa Fluor 647 uptake, Abi1 Y213F cells",[3]; 10 ng/ml PDGF,demonstrated PDGF response
same,Rac1 activation following PDGF stimulation,[5],enhanced Rac1 activation
